System: M. furfur ATCC 14521
Experiment: Antifungal activity (log reduction) on M. furfur
Format: cell-based
Conditions: contact time 24 hr, 10 mg sample in 1000 μL inoculum, 10^5 cells/ml, 32° C.
Procedure: The above samples were subjected to their anti fungal efficacy on M. furfur as described hereinafter.
M. furfur ATCC 14521 strain was revived from glycerol stock on Modified Dixon agar. Plate was at 30° C. for 72 hrs. Approximately 72 hrs prior to testing, the plate culture was inoculated onto the surface of another sterile Modified Dixon agar plate and incubated at 30° C. for approximately 72 hrs. From second subculture, the optical density of culture is adjusted at 620 nm to give cell strength of 10^7 cfu/ml. The culture was further diluted for 100 times to achieve 10^5 cfu/ml in Pityrosporum broth.
1000 μL of M. furfur inocula were added to the above tubes and a blank sterile 1.5 ml Eppendorf tube (no particles as control), respectively so that the load in each tube is 10^5 cells/ml.
All the samples were kept shaken @120 RPM in a shaker incubator at 32° C. After 24 hours incubation, 10 μL of the samples were withdrawn from the respective 1.5 ml Eppendorf tubes and diluted with 990 μL of Pityrosporum broth. This represents 10^−2 dilution. Serial dilution was performed from the above 24 hours inocula and plated 100 μL of dilution onto modified Dixon plate. Plate dilution 10^−2, 10^−3, 10^−4 and 10^−5. All the plates were kept for incubation at 32° C. for 24-72 hrs. Plate count for all the plates were done.

zinc pyrithione [Example B]
Log reduction: 1.58
